Results published in patent US20250154162A1, “COMPOUND FOR REGULATING AND CONTROLLING 15-PGDH ACTIVITY AND PREPARATION METHOD THEREFOR” (SCINNOHUB PHARMACEUTICAL CO., LTD., priority 2022, published 2025).

What was measured:
[1] = system: A549 cells; test: Assay of intracellular PGE2 up-regulatory activity; type: cell-based; conditions: Homo sapiens, IL-1β induced, 8 h, relative to positive control group; for activity at 0.3 µM: 300 nM compound, read-out: PGE2 upregulation rate at 300 nM compound concentration; for activity at 0.01 µM: 10 nM compound, read-out: PGE2 upregulation rate at 10 nM compound concentration
Experimental: • a) A549 cells were inoculated in the 24-well plate, and after cell adhesion, IL-1β was added thereto for 16 h of stimulation to induce COX2 expression and PGE2 production. • b) A solution of the compound to be tested was prepared with the culture medium and gradiently diluted to 3 concentrations of 10 nM, 300 nM and 10,000 nM or 7 concentrations of 0.64 nM, 3.2 nM, 16 nM, 80 nM, 400 nM, 2000 nM and 10,000 nM, and meanwhile the positive control group (only IL-1β was added to the cells for induction) and negative control group (only cells were added in the wells without any treatment) were set up. The cell supernatants were collected after 8 h of action, in which the positive control group was induced by IL-1β without treatment of the compounds, and the negative control group was neither stimulated by IL-1β, nor treated with the compounds. • c) The PGE2 content of the samples was determined by Prostaglandin E2 Kit, and the fluorescence signal was detected by a multifunctional microplate reader (Ex/Em=337/620, 337/665).
• a) A standard curve was plotted with the PGE2 standard in the Prostaglandin E2 Kit, and the PGE2 concentration was calculated by substituting with the fluorescence signal of the sample. • b) The PGE2 upregulation rate % was calculated by using the following formula: • PGE2 upregulation rate %=(PGE2 concentration of sample group/PGE2 concentration of positive control group)×100%.

[2] = molecular target: 15-PGDH (Homo sapiens (Human), UniProt P15428); test: Detection of 15-PGDH enzyme activity; type: biochemical; conditions: 15-PGDH enzyme inhibitory activity; substrates β-NAD and PGF2α
15-PGDH, sequence (P15428 whole entry): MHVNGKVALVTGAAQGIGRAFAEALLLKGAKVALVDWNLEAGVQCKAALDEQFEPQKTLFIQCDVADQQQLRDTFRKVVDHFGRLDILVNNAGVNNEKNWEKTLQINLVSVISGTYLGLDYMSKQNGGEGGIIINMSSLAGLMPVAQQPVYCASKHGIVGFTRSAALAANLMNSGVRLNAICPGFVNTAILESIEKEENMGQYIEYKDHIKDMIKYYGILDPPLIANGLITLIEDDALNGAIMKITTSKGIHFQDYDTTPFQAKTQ
Description: The formula was shown below: Y=Bottom+(Top-Bottom)/(1+10∧((LogIC50−X)*HillSlope)), wherein X is a log value of a concentration of the compound, and Y is inhibition rate %.

Nc1c(C(=O)N2CCCCC2)sc2nc(-c3ccc4c(c3)OCCO4)cnc12 [Example 10]
activity at 0.3 µM [1]: 206% | IC50 [2]: 0.5 to 3 nM

Nc1c(C(=O)N2CCCCC2)sc2nc(-c3ccc4ccccc4c3)cnc12 [Example 35]
activity at 0.01 µM [1]: 208% | activity at 0.3 µM [1]: 231% | IC50 [2]: 0.5 to 3 nM

CN(C)c1ncc(-c2cnc3c(N)c(C(=O)N4CCCCC4)sc3n2)cn1 [Example 25]
activity at 0.3 µM [1]: 276% | IC50 [2]: < 0.5 nM

Cn1cc(-c2cnc3c(N)c(C(=O)N4CCCCC4)sc3n2)ccc1=O [Example 17]
IC50 [2]: 0.5 to 3 nM

Nc1c(C(=O)N2CCCCC2)sc2nc(-c3ccc4nccnc4c3)cnc12 [Example 12]
activity at 0.3 µM [1]: 170% | IC50 [2]: 0.5 to 3 nM

Nc1c(C(=O)N2CCS(=O)(=O)CC2)sc2nc(-c3ccccc3)cnc12 [Example 53]
IC50 [2]: 1000 to 5000 nM

Nc1c(C(=O)N2CCSCC2)sc2nc(-c3ccccc3)cnc12 [Example 16]
IC50 [2]: 10 to 25 nM

Nc1c(C(=O)N2CCCCC2)sc2nc(-c3cccnc3)cnc12 [Example 32]
activity at 0.01 µM [1]: 530% | IC50 [2]: 3 to 10 nM

Nc1c(C(=O)N2CCC(F)(F)C2)sc2nc(-c3ccccc3)cnc12 [Example 50]
IC50 [2]: 50 to 1000 nM

Cc1cc(-c2cnc3c(N)c(C(=O)N4CCCCC4)sc3n2)ccn1 [Example 30]
activity at 0.3 µM [1]: 341% | IC50 [2]: 0.5 to 3 nM

Nc1c(C(=O)N2CC3(COC3)C2)sc2nc(-c3ccccc3)cnc12 [Example 59]
IC50 [2]: > 5000 nM

Nc1ccc(-c2cnc3c(N)c(C(=O)N4CCCCC4)sc3n2)cn1 [Example 13]
activity at 0.3 µM [1]: 207% | IC50 [2]: 0.5 to 3 nM

Nc1c(C(=O)N2CCCCC2)sc2nc(-c3ccnc(F)c3)cnc12 [Example 21]
activity at 0.3 µM [1]: 211% | IC50 [2]: < 0.5 nM

Nc1c(C(=O)N2CCCCC2)sc2nc(-c3ccc4ncccc4c3)cnc12 [Example 22]
activity at 0.01 µM [1]: 282% | activity at 0.3 µM [1]: 329% | IC50 [2]: 0.5 to 3 nM

Nc1c(C(=O)N2CCCCCC2)sc2nc(-c3ccccc3)cnc12 [Example 4]
IC50 [2]: 10 to 25 nM

Nc1c(C(=O)N2CCCCC2)sc2nc(-c3ccc4nc[nH]c4c3)cnc12 [Example 40]
activity at 0.01 µM [1]: 233% | activity at 0.3 µM [1]: 315% | IC50 [2]: 0.5 to 3 nM

Nc1c(C(=O)N2CCCCC2)sc2nc(-c3ccc4c(c3)OCO4)cnc12 [Example 43]
IC50 [2]: 3 to 10 nM

Nc1c(C(=O)N2CCOCC2)sc2nc(-c3ccccc3)cnc12 [Example 51]
IC50 [2]: 50 to 1000 nM

Nc1c(C(=O)N2CCC(F)(F)CC2)sc2nc(-c3ccccc3)cnc12 [Example 49]
IC50 [2]: 50 to 1000 nM

CN1CCN(c2ncc(-c3cnc4c(N)c(C(=O)N5CCCCC5)sc4n3)cn2)CC1 [Example 28]
activity at 0.3 µM [1]: 318% | IC50 [2]: 0.5 to 3 nM

Nc1c(C(=O)N2CCCCC2)sc2nc(-c3ccc4ncoc4c3)cnc12 [Example 2, (7-amino-3-(benzo[d]oxazol-6-yl)thieno[2,3-b]pyrazin-6-yl) (piperidin-1-yl) methanone]
activity at 0.01 µM [1]: 200% | activity at 0.3 µM [1]: 348% | IC50 [2]: 0.5 to 3 nM

Nc1c(C(=O)N2CCCCC2)sc2nc(-c3cccs3)cnc12 [Example 5]
activity at 0.01 µM [1]: 451% | IC50 [2]: 0.5 to 3 nM

Nc1c(C(=O)N2CCCCC2)sc2nc(-c3cncnc3)cnc12 [Example 6]
activity at 0.01 µM [1]: 412% | activity at 0.3 µM [1]: 450% | IC50 [2]: 0.5 to 3 nM

Nc1c(C(=O)N2CCCCC2)sc2nc(-c3ccc(N4CCOCC4)nc3)cnc12 [Example 19]
IC50 [2]: 3 to 10 nM

Nc1c(C(=O)N2CCCCC2)sc2nc(-c3c(Cl)cccc3Cl)cnc12 [Example 34]
IC50 [2]: 0.5 to 3 nM

Cn1ccc(-c2cnc3c(N)c(C(=O)N4CCCCC4)sc3n2)n1 [Example 8]
IC50 [2]: 3 to 10 nM

Cn1cc(-c2cnc3c(N)c(C(=O)N4CCCCC4)sc3n2)cn1 [Example 48]
IC50 [2]: 10 to 25 nM

Nc1c(C(=O)N2CCCCC2)sc2nc(-c3cnc4[nH]ncc4c3)cnc12 [Example 41]
IC50 [2]: 3 to 10 nM

Nc1c(C(=O)N2CCCCC2)sc2nc(-c3ccc4nccn4c3)cnc12 [Example 15]
activity at 0.3 µM [1]: 168% | IC50 [2]: 0.5 to 3 nM

Cn1ccc2cc(-c3cnc4c(N)c(C(=O)N5CCCCC5)sc4n3)ccc2c1=O [Example 64]
activity at 0.01 µM [1]: 173% | activity at 0.3 µM [1]: 196% | IC50 [2]: 0.5 to 3 nM

N#Cc1ccc(-c2cnc3c(N)c(C(=O)N4CCCCC4)sc3n2)cn1 [Example 47]
activity at 0.01 µM [1]: 424% | activity at 0.3 µM [1]: 774% | IC50 [2]: < 0.5 nM

COc1cncc(-c2cnc3c(N)c(C(=O)N4CCCCC4)sc3n2)c1 [Example 45]
activity at 0.01 µM [1]: 177% | activity at 0.3 µM [1]: 347% | IC50 [2]: 0.5 to 3 nM

Cc1noc(C)c1-c1cnc2c(N)c(C(=O)N3CCCCC3)sc2n1 [Example 11]
activity at 0.01 µM [1]: 990% | IC50 [2]: 0.5 to 3 nM

Nc1c(C(=O)N2CCC(F)CC2)sc2nc(-c3ccccc3)cnc12 [Example 3, (7-amino-3-phenylthieno[2,3-b]pyrazin-6-yl) (4-fluoropiperidin-1-yl) methanone]
IC50 [2]: 10 to 25 nM

Nc1c(C(=O)N2CCCCC2)sc2nc(-c3ccnc(C(F)(F)F)c3)cnc12 [Example 37]
IC50 [2]: 3 to 10 nM

CN1CCN(C(=O)c2sc3nc(-c4ccccc4)cnc3c2N)CC1 [Example 52]
IC50 [2]: 50 to 1000 nM

Nc1c(C(=O)N2CCc3ccccc3C2)sc2nc(-c3ccccc3)cnc12 [Example 54]
IC50 [2]: 50 to 1000 nM

Nc1c(C(=O)N2CCCCC2)sc2nc(-c3ccc4ncsc4c3)cnc12 [Example 23]
activity at 0.01 µM [1]: 254% | activity at 0.3 µM [1]: 375% | IC50 [2]: < 0.5 nM

N#Cc1ncc(-c2cnc3c(N)c(C(=O)N4CCCCC4)sc3n2)cn1 [Example 44]
IC50 [2]: 3 to 10 nM

Nc1c(C(=O)N2CCCCC2)sc2nc(-c3cnc4[nH]ccc4c3)cnc12 [Example 29]
IC50 [2]: 0.5 to 3 nM

Nc1ncc(-c2cnc3c(N)c(C(=O)N4CCCCC4)sc3n2)cn1 [Example 33]
activity at 0.01 µM [1]: 393% | activity at 0.3 µM [1]: 754% | IC50 [2]: < 0.5 nM

COc1ccc(-c2cnc3c(N)c(C(=O)N4CCCCC4)sc3n2)cn1 [Example 20]
IC50 [2]: 0.5 to 3 nM

Nc1cc(-c2cnc3c(N)c(C(=O)N4CCCCC4)sc3n2)ccn1 [Example 62]
IC50 [2]: 0.5 to 3 nM

Cn1ccc(-c2cnc3c(N)c(C(=O)N4CCCCC4)sc3n2)cc1=O [Example 42]
activity at 0.3 µM [1]: 204% | IC50 [2]: 0.5 to 3 nM

CC1CN(C(=O)c2sc3nc(-c4ccccc4)cnc3c2N)CC(C)O1 (stereo not drawn) [Example 55]
IC50 [2]: 50 to 1000 nM

CN1Cc2cc(-c3cnc4c(N)c(C(=O)N5CCCCC5)sc4n3)ccc2C1=O [Example 63]
activity at 0.3 µM [1]: 222% | IC50 [2]: 0.5 to 3 nM

CC1(C)CCN(C(=O)c2sc3nc(-c4ccccc4)cnc3c2N)CC1 [Example 56]
IC50 [2]: 50 to 1000 nM

Nc1c(C(=O)N2CCCCC2)sc2nc(-c3cnc(N4CCOCC4)nc3)cnc12 [Example 24]
activity at 0.3 µM [1]: 310% | IC50 [2]: < 0.5 nM

Cn1ncc2cc(-c3cnc4c(N)c(C(=O)N5CCCCC5)sc4n3)ccc21 [Example 18]
IC50 [2]: 3 to 10 nM

Nc1c(C(=O)N2CCCCC2)sc2nc(-c3ccn[nH]3)cnc12 [Example 9]
IC50 [2]: 3 to 10 nM

Nc1c(C(=O)N2CCCCC2)sc2nc(-c3ccc(F)nc3)cnc12 [Example 46]
activity at 0.3 µM [1]: 251% | IC50 [2]: 0.5 to 3 nM

COc1ncc(-c2cnc3c(N)c(C(=O)N4CCCCC4)sc3n2)cn1 [Example 60]
IC50 [2]: < 0.5 nM

Nc1c(C(=O)N2CCCCC2)sc2nc(-c3cnc4ccccc4c3)cnc12 [Example 31]
IC50 [2]: 0.5 to 3 nM

Nc1c(C(=O)N2CCC3(CC2)CC3)sc2nc(-c3ccccc3)cnc12 [Example 57]
IC50 [2]: 50 to 1000 nM

Nc1c(C(=O)N2CCCCC2)sc2nc(-c3ccncc3)cnc12 [Example 27]
IC50 [2]: 0.5 to 3 nM

Nc1c(C(=O)N2CCCCC2)sc2nc(-c3cccc4ccccc34)cnc12 [Example 61]
IC50 [2]: 3 to 10 nM

Nc1c(C(=O)N2CCCCC2)sc2nc(-c3ccccc3)cnc12 [Example 1, (7-amino-3-phenylthieno[2,3-b]pyrazin-6-yl) (piperidin-1-yl) methanone]
IC50 [2]: 3 to 10 nM

Nc1c(C(=O)N2CCCCC2)sc2nc(-c3ccc4cccnc4c3)cnc12 [Example 39]
IC50 [2]: 0.5 to 3 nM

Nc1c(C(=O)N2CCCCC2)sc2nc(-c3cncs3)cnc12 [Example 7]
activity at 0.01 µM [1]: 479% | activity at 0.3 µM [1]: 758% | IC50 [2]: 0.5 to 3 nM

Nc1c(C(=O)N2CCCCC2)sc2nc(-c3cncc4ccccc34)cnc12 [Example 26]
activity at 0.01 µM [1]: 499% | IC50 [2]: 0.5 to 3 nM

Cc1ccc(-c2cnc3c(N)c(C(=O)N4CCCCC4)sc3n2)cn1 [Example 36]
activity at 0.01 µM [1]: 301% | activity at 0.3 µM [1]: 384% | IC50 [2]: 0.5 to 3 nM

Nc1c(C(=O)N2CC[S+]([O-])CC2)sc2nc(-c3ccccc3)cnc12 [Example 58]
IC50 [2]: > 5000 nM
